Measurements published in patent publication US20240190828A1, “Small Molecule Inhibitors of PBRM1-BD2” (The Medical College of Wisconsin, Inc., priority 2021, published 2024).

What was measured:
SMARCA4 [1] = target: T1, SMARCA4 (Homo sapiens (Human), UniProt P51532); test: Isothermal titration calorimetry (ITC); type: binding; conditions: NB = did not bind
Procedure: (§3) Binding affinities of inhibitors towards PBRM1-BD2, PBRM1-BD5, SMARCA2, SMARCA4, and ASH1L were determined using a VP-ITC instrument (MicroCal). […] Protein concentrations were determined via the method of Bradford.^1 The buffer used for all ITC experiments consisted of 50 mM HEPES (pH 7.5 at 20° C.), 500 mM NaCl, 5% v/v glycerol, and 1% v/v DMSO; except for experiments involving PBRM1-BD2 whose buffer consisted of 100 mM Na2PO4 (pH 7.5 at 20° C.), 100 mM NaCl, 5% v/v glycerol, and 1% v/v DMSO. Kd values were determined by least-squares fitting to the raw data using Origin (OriginLab).

BRD3-BD2 = BRD3-BD2 (Homo sapiens (Human), UniProt Q15059); test: DSF selectivity profiling; type: binding
Procedure: (§1) Differential Scanning Fluorimetry (DSF). Bromodomain DSF Tm assays were performed using an Mx3005P (Stratagene) PCR detection system and low profile 96-well PCR plates (UltraFlux, Flat Top, SSI 3400-00S). […] The temperature was raised by 1° C./min from 25-95° C., and fluorescence readings were taken at each interval. Melting curves were analyzed using our online interactive fitting tool for thermofluor experiments (https://dsf-analysis.herokuapp.com/DSF-analysis) and plotted using GraphPad Prism.

BRD4-BD2 = BRD4-BD2 (Homo sapiens (Human), UniProt O60885); test: DSF selectivity profiling; type: binding
Procedure: as §1

CREBBP = CREBBP (Homo sapiens (Human), UniProt Q92793); test: DSF selectivity profiling; type: binding
Chain of CREBBP (Q92793 1085-1192): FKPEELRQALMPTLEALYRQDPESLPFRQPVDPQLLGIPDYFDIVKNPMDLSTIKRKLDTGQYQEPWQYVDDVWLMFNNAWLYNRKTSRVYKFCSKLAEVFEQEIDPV
Procedure: as §1

ASH1L = ASH1L (Homo sapiens (Human), UniProt Q9NR48); test: DSF selectivity profiling; type: binding
Procedure: as §1

BRD2-BD2 = BRD2-BD2 (Homo sapiens (Human), UniProt P25440); test: DSF selectivity profiling; type: binding
Chain of BRD2-BD2 (P25440 344-453): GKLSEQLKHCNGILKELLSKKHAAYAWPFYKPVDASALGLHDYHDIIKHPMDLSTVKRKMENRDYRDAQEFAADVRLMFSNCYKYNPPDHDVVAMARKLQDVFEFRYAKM
Procedure: as §1

BRD4-BD1 = BRD4-BD1 (Homo sapiens (Human), UniProt O60885); test: DSF selectivity profiling; type: binding
Procedure: as §1

TRIM33A = TRIM33A (Homo sapiens (Human), UniProt Q9UPN9); test: DSF selectivity profiling; type: binding
Chain of TRIM33A (Q9UPN9 957-1080): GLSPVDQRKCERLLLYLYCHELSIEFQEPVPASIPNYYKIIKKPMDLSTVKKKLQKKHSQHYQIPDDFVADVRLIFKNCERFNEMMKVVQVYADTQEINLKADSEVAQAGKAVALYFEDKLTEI
Procedure: as §1

BRD3-BD1 = BRD3-BD1 (Homo sapiens (Human), UniProt Q15059); test: DSF selectivity profiling; type: binding
Chain of BRD3-BD1 (Q15059 34-140): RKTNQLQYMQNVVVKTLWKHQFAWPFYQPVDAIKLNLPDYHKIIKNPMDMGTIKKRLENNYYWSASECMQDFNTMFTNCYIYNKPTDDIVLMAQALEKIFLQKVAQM
Procedure: as §1

PCAF = PCAF (Homo sapiens (Human), UniProt Q92831); test: DSF selectivity profiling; type: binding
Chain of PCAF (Q92831 723-827): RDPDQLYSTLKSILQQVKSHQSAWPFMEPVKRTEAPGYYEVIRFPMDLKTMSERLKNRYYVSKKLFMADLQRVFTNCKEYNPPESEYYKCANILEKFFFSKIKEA
Procedure: as §1

CECR2 = CECR2 (Homo sapiens (Human), UniProt Q9BXF3); test: DSF selectivity profiling; type: binding
Chain of CECR2 (Q9BXF3 434-538): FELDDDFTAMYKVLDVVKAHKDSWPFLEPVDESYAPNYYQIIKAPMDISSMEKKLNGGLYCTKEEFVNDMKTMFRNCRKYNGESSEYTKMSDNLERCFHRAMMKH
Procedure: as §1

BRD7 = BRD7 (Homo sapiens (Human), UniProt Q9NPI1); test: DSF selectivity profiling; type: binding
Chain of BRD7 (Q9NPI1 131-235): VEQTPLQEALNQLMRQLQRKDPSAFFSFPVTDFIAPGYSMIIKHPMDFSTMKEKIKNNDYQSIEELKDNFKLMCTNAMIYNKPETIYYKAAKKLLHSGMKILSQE
Procedure: as §1

SMARCA4 [2] = target: T1, SMARCA4; test: DSF selectivity profiling; type: binding
Procedure: as §1

BRDT-BD1 = BRDT-BD1 (Homo sapiens (Human), UniProt Q58F21); test: DSF selectivity profiling; type: binding
Procedure: as §1

p300 = p300 (Homo sapiens (Human), UniProt Q09472); test: DSF selectivity profiling; type: binding
Chain of p300 (Q09472 1049-1156): as the sequence (Q92793 1085-1192) above, with N47S, V73I, F93Y, A98S counted along it
Procedure: as §1

[3] = tested on: other tested bromodomains; test: DSF selectivity panel of 22 bromodomains; type: binding, human; conditions: bromodomains other than PBRM1-BD2, -BD3, -BD5
Procedure: as §1

SMARCA2 [4] = target: T2, SMARCA2 (Homo sapiens (Human), UniProt P51531); test: Isothermal titration calorimetry (ITC); type: binding; conditions: NB = did not bind
T2 sequence (P51531 1378-1506): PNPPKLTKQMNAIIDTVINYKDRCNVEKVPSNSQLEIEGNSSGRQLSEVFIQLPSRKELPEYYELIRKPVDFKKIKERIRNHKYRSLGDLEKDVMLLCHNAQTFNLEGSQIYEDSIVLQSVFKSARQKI
Procedure: as §3

RWPE-1 cells = test: Cell viability assay (CellTiter-Glo); type: cell-based, human; conditions: 10, 1 and 0.1 μM
Procedure: (§2) Cell Viability Assays. Cells were seeded in a 96-well plate and incubated for 12-24 h prior to initial treatment. The number of cells per well was chosen empirically based on cell growth rates (LNCaP-5,000 cells/well, PC3 and RWPE-1-3,000 cells per well, HEK293T-1,000 cells/well). Cells were treated with either DMSO control or serial dilutions of inhibitors and media with compound was refreshed every 48 h.

PC3 cells = test: Cell viability assay (CellTiter-Glo); type: cell-based, human; conditions: 10, 1 and 0.1 μM
Procedure: as §2

HEK293T cells = test: Cell viability assay (CellTiter-Glo); type: cell-based, human; conditions: dose curve
Procedure: as §2

SMARCA2 [5] = target: T2, SMARCA2; test: DSF selectivity profiling; type: binding
Procedure: as §1

Chain of BRD3-BD2 (Q15059 306-415): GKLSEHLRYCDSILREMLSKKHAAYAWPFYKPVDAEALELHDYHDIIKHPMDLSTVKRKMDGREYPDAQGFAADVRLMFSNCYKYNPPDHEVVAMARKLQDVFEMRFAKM
T1 sequence (P51532 1453-1564): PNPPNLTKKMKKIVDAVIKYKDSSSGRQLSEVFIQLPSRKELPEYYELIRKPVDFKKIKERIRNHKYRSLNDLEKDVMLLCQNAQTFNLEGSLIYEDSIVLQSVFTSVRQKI

| SMILES | BRD3-BD2 ΔTm (BRD3-BD2) | BRD4-BD2 ΔTm (BRD4-BD2) | CREBBP ΔTm (CREBBP) | ASH1L ΔTm (ASH1L) | BRD2-BD2 ΔTm (BRD2-BD2) | BRD4-BD1 ΔTm (BRD4-BD1) | TRIM33A ΔTm (TRIM33A) | BRD3-BD1 ΔTm (BRD3-BD1) | PCAF ΔTm (PCAF) | CECR2 ΔTm (CECR2) | BRD7 ΔTm (BRD7) | BRDT-BD1 ΔTm (BRDT-BD1) | p300 ΔTm (p300) | further results |
| --- | --- | --- | --- | --- | --- | --- | --- | --- | --- | --- | --- | --- | --- | --- |
| Cc1ccccc1C1NC(=O)c2c(Cl)cccc2N1 (stereo not shown) [Compound 15, 5-Chloro-2-(2-methylphenyl)-2,3-dihydroquinazolin-4(1H)-one] | 0.4 °C | −3.3 °C | 0.5 °C | −0.6 °C | 0.6 °C | 0.1 °C | 0.8 °C | 0.3 °C | 0.5 °C | −0.5 °C | 0.2 °C | −0.7 °C | 0.2 °C | Kd SMARCA4 (SMARCA4 [1]): did not exhibit detectable thermal stabilization or binding affinity; SMARCA4 ΔTm (SMARCA4 [2]): did not exhibit detectable thermal stabilization or binding affinity; thermal stabilization against other tested bromodomains [3]: < 1 °C; Kd SMARCA2 (SMARCA2 [4]): did not exhibit detectable thermal stabilization or binding affinity |
| Cc1cccc(C2NC(=O)c3c(Cl)cccc3N2)c1C (stereo not shown) [Compound 25, 5-Chloro-2-(2,3-dimethylphenyl)-2,3-dihydroquinazolin-4(1H)-one] | 0.4 °C | −4.2 °C | 0.6 °C | −0.8 °C | 0.2 °C | 0.6 °C | 0.3 °C | 0.4 °C | 0.1 °C | 0.8 °C | 0.0 °C | 0.1 °C | 0.6 °C | growth inhibition of RWPE1 cells (RWPE-1 cells): also inhibits the PC3, RWPE1, and HEK293T cells similarly; growth inhibition of PC3 cells (PC3 cells): also inhibits the PC3, RWPE1, and HEK293T cells similarly; growth inhibition of HEK293T cells (HEK293T cells): also inhibits the PC3, RWPE1, and HEK293T cells similarly; SMARCA2 ΔTm (SMARCA2 [5]): 0.0 °C |
